Reference: patent US20200345776A1, “CELL” (AUTOLUS LIMITED, priority 2017, published 2020)

Columns and labels:
cancer cells = conditions: cited from earlier work
Adenosine A2AR receptor = Adenosine A2AR receptor (Homo sapiens, UniProt P29274); conditions: cited from earlier work
SKOV3 cells [1] = conditions: positive control of cell killing/inhibition, 10 ug/ml; cited from earlier work
SKOV3 cells [2] = assay: Co-culture of violacein-producing SupT1 cells with SKOV3 cells, live cell imaging; assay type: cell-based, human; conditions: FIG. 12, co-culture
Procedure: The following day the indicated supT1 cells were added to the SKOV3 cells at density of 20,000 cells per well in a total volume of 200 ul cell culture medium. Cells were continuously monitored in a Incycute live cell imager and the number of viable SKOV3 cells enumerated every hour by counting the presence of red fluorescent nuclei.

MOLT-4 leukaemia = conditions: cited from earlier work
[3] = tested on: NCI-H460 non-small-cell lung cancer; conditions: cited from earlier work
[4] = tested on: KM12 colon-cancer cell lines; conditions: cited from earlier work

Adenosine A2AR receptor, sequence (P29274 whole entry): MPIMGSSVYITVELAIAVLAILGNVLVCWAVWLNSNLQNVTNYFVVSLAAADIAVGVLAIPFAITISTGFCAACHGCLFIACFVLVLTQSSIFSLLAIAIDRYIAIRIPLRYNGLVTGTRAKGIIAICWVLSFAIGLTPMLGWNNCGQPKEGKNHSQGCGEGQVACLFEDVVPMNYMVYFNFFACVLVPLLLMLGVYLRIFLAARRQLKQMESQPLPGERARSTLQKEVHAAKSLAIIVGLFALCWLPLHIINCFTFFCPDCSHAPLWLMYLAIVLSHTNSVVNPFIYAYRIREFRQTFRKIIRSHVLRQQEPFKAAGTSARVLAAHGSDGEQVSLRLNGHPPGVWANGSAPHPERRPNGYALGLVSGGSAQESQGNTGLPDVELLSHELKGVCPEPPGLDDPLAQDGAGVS

## CC(C)=CCC/C(C)=C/CO [Geraniol]
Cancer cells
  Effect against cancer cells in vitro: anti-proliferative/pro-apoptotic effect

## Cn1c(=O)c2c(ncn2C)n(C)c1=O [Caffeine]
Adenosine A2AR receptor
  Action on Adenosine A2AR receptor expressed on T cells: known antagonist

## COc1cc([C@@H]2c3cc4c(cc3[C@@H](O[C@@H]3O[C@@H]5CO[C@@H](C)O[C@H]5[C@H](O)[C@H]3O)[C@H]3COC(=O)[C@H]23)OCO4)cc(OC)c1O [Etoposide]
SKOV3 cells [1]
  Apoptosis of SKOV3 cells: induces the apoptosis

## O=C1NC(c2c[nH]c3ccc(O)cc23)=C/C1=C1\C(=O)Nc2ccccc21 [Violacein]
SKOV3 cells [2]
  Toxicity of violacein produced by SupT1 cells to SKOV3 tumour cells: toxic
MOLT-4 leukaemia
  Activity against MOLT-4 leukaemia: has activity
[3]
  Activity against NCI-H460 non-small-cell lung cancer: has activity
[4]
  Activity against KM12 colon-cancer cell lines: has activity
